The OligoGym collection
“And” between values parts separate entries of the source, which are not always exact repeats. Equal values may be shown once. HELM strings list units from the 5' end as sugar, base in round brackets, then linkage (d deoxyribose, r ribose, m 2'-O-methyl, p phosphodiester). Strings are as the collection lists them, not checked against the first reports. ss, as = sense and antisense strand; [lna] = locked nucleic acid (LNA); [una] = unlocked nucleic acid; [hna] = hexitol nucleic acid; [fl2r] = 2'-fluoro

Details: siRNA
Note: test system not given here.

Substance	target mRNA knockdown
RNA1{r(C)p.r(U)p.r(U)p.r(A)p.r(C)p.r(G)p.r(C)p.r(U)p.r(G)p.r(A)p.r(G)p.r(U)p.r(A)p.r(C)p.r(U)p.r(U)p.r(C)p.r(G)p.r(A)p.r(T)p.r(T)}|RNA2{r(U)p.r(C)p.r(G)p.[lna](A)p.r(A)p.r(G)p.r(U)p.r(A)p.r(C)p.r(U)p.r(C)p.r(A)p.r(G)p.r(C)p.r(G)p.r(U)p.r(A)p.r(A)p.r(G)p.r(T)p.r(T)}$$$RNA1{StrandType:ss}|RNA2{StrandType:as}$	85%
RNA1{r(C)p.r(U)p.[fl2r](A)p.r(G)p.r(A)p.r(G)p.r(G)p.r(A)p.r(U)p.r(C)p.r(U)p.r(U)p.r(G)p.r(A)p.r(A)p.r(G)p.r(A)p.r(C)p.r(C)p.r(T)p.r(T)}|RNA2{r(G)p.r(G)p.r(U)p.r(C)p.r(U)p.r(U)p.r(C)p.r(A)p.r(A)p.r(G)p.r(A)p.r(U)p.r(C)p.r(C)p.r(U)p.r(C)p.[fl2r](U)p.r(A)p.r(G)p.r(T)p.r(T)}$$$RNA1{StrandType:ss}|RNA2{StrandType:as}$	82%
RNA1{r(A)p.r(A)p.r(A)p.r(C)p.r(G)p.r(A)p.m(G)p.r(A)p.r(G)p.r(A)p.r(G)p.r(C)p.r(C)p.m(C)p.r(A)p.r(C)p.r(C)p.r(U)p.r(U)p.r(T)p.r(T)}|RNA2{r(A)p.r(A)p.r(G)p.r(G)p.m(U)p.m(G)p.r(G)p.r(G)p.r(C)p.r(U)p.r(C)p.r(U)p.r(C)p.r(U)p.r(C)p.r(G)p.r(U)p.r(U)p.r(U)p.r(T)p.r(T)}$$$RNA1{StrandType:ss}|RNA2{StrandType:as}$	56%
RNA1{[hna](G)p.[hna](A)p.[hna](C)p.r(G)p.r(U)p.r(A)p.r(A)p.r(A)p.r(C)p.r(G)p.r(G)p.r(C)p.r(C)p.r(A)p.r(C)p.r(A)p.r(A)p.[hna](G)p.[hna](U)p.r(U)p.d(T)}|RNA2{r(A)p.r(C)p.[lna](T)p.r(U)p.r(G)p.[lna](T)p.r(G)p.r(G)p.r(C)p.r(C)p.r(G)p.r(U)p.r(U)p.[lna](T)p.r(A)p.r(C)p.r(G)p.[lna](T)p.r(C)p.[lna](G)p.[lna](C)}$$$RNA1{StrandType:ss}|RNA2{StrandType:as}$	5.4%
RNA1{r(U)p.r(C)p.r(C)p.m(U)p.r(A)p.r(G)p.r(C)p.r(U)p.r(G)p.r(U)p.r(C)p.r(U)p.r(U)p.r(G)p.r(U)p.r(C)p.r(C)p.r(C)p.r(U)p.r(T)p.r(T)}|RNA2{r(A)p.r(G)p.r(G)p.r(G)p.r(A)p.r(C)p.r(A)p.r(A)p.r(G)p.r(A)p.r(C)p.r(A)p.r(G)p.r(C)p.m(U)p.r(A)p.r(G)p.r(G)p.r(A)p.r(T)p.r(T)}$$$RNA1{StrandType:ss}|RNA2{StrandType:as}$	71%
RNA1{[fl2r](G)p.r(U)p.[fl2r](U)p.r(C)p.[fl2r](A)p.r(C)p.[fl2r](G)p.r(U)p.[fl2r](C)p.r(C)p.[fl2r](U)p.r(A)p.[fl2r](C)p.r(C)p.[fl2r](C)p.r(C)p.[fl2r](U)p.r(U)p.[fl2r](U)p.r(T)p.r(T)}|RNA2{r(A)p.r(A)p.r(A)p.r(G)p.r(G)p.r(G)p.r(G)p.r(U)p.r(A)p.r(G)p.r(G)p.r(A)p.[fl2r](C)p.r(G)p.r(U)p.r(G)p.r(A)p.r(A)p.[fl2r](C)p.r(T)p.r(T)}$$$RNA1{StrandType:ss}|RNA2{StrandType:as}$	23%
RNA1{r(G)p.r(A)p.r(A)p.r(G)p.r(A)p.r(U)p.r(A)p.r(G)p.r(G)p.r(A)p.r(A)p.r(G)p.r(G)p.r(G)p.r(G)p.r(C)p.r(U)p.r(U)p.r(C)p.r(T)p.r(T)}|RNA2{r(G)p.r(A)p.r(A)p.r(G)p.[fl2r](C)p.[fl2r](C)p.[fl2r](C)p.[fl2r](C)p.[fl2r](U)p.[fl2r](U)p.[fl2r](C)p.[fl2r](C)p.[fl2r](U)p.r(A)p.[fl2r](U)p.[fl2r](C)p.[fl2r](U)p.[fl2r](U)p.[fl2r](C)p.r(T)p.r(T)}$$$RNA1{StrandType:ss}|RNA2{StrandType:as}$	5%
RNA1{r(A)p.m(A)p.r(G)p.m(G)p.r(A)p.m(G)p.r(A)p.m(U)p.r(C)p.m(A)p.r(A)p.m(C)p.r(A)p.m(U)p.r(U)p.m(U)p.r(U)p.m(C)p.r(A)p.r(T)p.r(T)}|RNA2{r(U)p.m(G)p.r(A)p.m(A)p.r(A)p.m(A)p.r(U)p.m(G)p.r(U)p.m(U)p.r(G)p.m(A)p.r(U)p.m(C)p.r(U)p.m(C)p.r(C)p.m(U)p.r(U)p.r(T)p.r(T)}$$$RNA1{StrandType:ss}|RNA2{StrandType:as}$	61%
RNA1{r(U)p.r(C)p.r(C)p.r(U)p.r(A)p.r(C)p.r(A)p.r(G)p.r(C)p.r(A)p.r(C)p.r(A)p.r(A)p.r(C)p.r(A)p.r(A)p.r(A)p.r(U)p.r(G)p.d(U)p.d(G)}|RNA2{r(C)p.r(A)p.r(U)p.r(U)p.r(U)p.r(G)p.r(U)p.r(U)p.r(G)p.r(U)p.r(G)p.r(C)p.r(U)p.r(G)p.r(U)p.r(A)p.r(G)p.r(G)p.r(A)p.d(A)p.d(G)}$$$RNA1{StrandType:ss}|RNA2{StrandType:as}$	25% and 0%
RNA1{r(A)p.r(G)p.r(A)p.r(G)p.r(U)p.m(U)p.r(G)p.r(G)p.r(G)p.r(A)p.r(U)p.m(U)p.r(A)p.r(G)p.r(G)p.r(G)p.r(C)p.r(U)p.r(U)p.r(T)p.r(T)}|RNA2{r(A)p.r(A)p.r(G)p.r(C)p.r(C)p.r(C)p.m(U)p.r(A)p.r(A)p.r(U)p.r(C)p.r(C)p.m(C)p.r(A)p.r(A)p.r(C)p.r(U)p.r(C)p.r(U)p.r(T)p.r(T)}$$$RNA1{StrandType:ss}|RNA2{StrandType:as}$	68%
RNA1{r(G)p.r(C)p.r(A)p.r(A)p.r(G)p.r(U)p.r(G)p.r(G)p.r(C)p.r(A)p.r(A)p.r(G)p.r(A)p.r(G)p.r(G)p.r(A)p.r(U)p.m(U)p.r(A)p.r(T)p.r(T)}|RNA2{m(U)p.r(A)p.r(A)p.r(U)p.r(C)p.r(C)p.r(U)p.r(C)p.r(U)p.r(U)p.r(G)p.r(C)p.r(C)p.r(A)p.r(C)p.r(U)p.r(U)p.r(G)p.r(C)p.r(T)p.r(T)}$$$RNA1{StrandType:ss}|RNA2{StrandType:as}$	69%
RNA1{[una](A)p.r(C)p.r(A)p.r(G)p.r(A)p.r(G)p.r(U)p.r(C)p.r(C)p.r(C)p.r(U)p.r(C)p.r(A)p.r(A)p.r(A)p.r(C)p.r(A)p.r(G)p.r(A)p.[una](U)p.[una](U)}|RNA2{r(U)p.r(C)p.r(U)p.r(G)p.r(U)p.r(U)p.r(U)p.r(G)p.r(A)p.r(G)p.r(G)p.r(G)p.r(A)p.r(C)p.r(U)p.r(C)p.r(U)p.r(G)p.r(U)p.[una](U)p.[una](U)}$$$RNA1{StrandType:ss}|RNA2{StrandType:as}$	94% and 92% and 91%
RNA1{r(C)p.r(G)p.r(G)p.r(A)p.r(U)p.r(C)p.m(U)p.r(A)p.r(C)p.r(A)p.r(C)p.r(C)p.r(U)p.r(U)p.r(C)p.r(A)p.r(A)p.r(G)p.r(A)p.r(T)p.r(T)}|RNA2{r(U)p.r(C)p.r(U)p.r(U)p.r(G)p.r(A)p.r(A)p.r(G)p.r(G)p.r(U)p.r(G)p.m(U)p.r(A)p.r(G)p.r(A)p.r(U)p.r(C)p.r(C)p.r(G)p.r(T)p.r(T)}$$$RNA1{StrandType:ss}|RNA2{StrandType:as}$	69%
RNA1{r(C)p.r(U)p.r(U)p.r(A)p.r(C)p.r(G)p.r(C)p.r(U)p.r(G)p.r(A)p.r(G)p.r(U)p.r(A)p.r(C)p.r(U)p.r(U)p.r(C)p.r(G)p.r(A)p.r(T)p.r(T)}|RNA2{r(U)p.r(C)p.r(G)p.r(A)p.r(A)p.r(G)p.r(U)p.r(A)p.r(C)p.r(U)p.[lna](C)p.r(A)p.r(G)p.r(C)p.r(G)p.r(U)p.r(A)p.r(A)p.r(G)p.r(T)p.r(T)}$$$RNA1{StrandType:ss}|RNA2{StrandType:as}$	50%
